{"source": "ChEMBL document CHEMBL6127130", "about": "“Pullenvalenes E-H: Triterpenyl-Aminoglycosides from an Australian Soil-Derived Fungus, Clonostachys sp” (J Nat Prod, 2024)", "key": {"[1]": {"test": "Inhibition of RANKL-induced osteoclastogenesis in mouse RAW264 cells assessed as reduction in multinucleated TRAP positive osteoclasts incubated for 4 days by TRAP staining based light microscopic analysis", "type": "functional, cell-based", "settings": "raw264.7"}, "Candida albicans": {"tested_on": "Candida albicans", "test": "Antifungal activity against Candida albicans ATCC 10231 assessed as inhibition of fungal growth incubated for 48 hrs by serial dilution based spectrophotometric analysis", "type": "functional, organism-based", "settings": "ATCC 10231, 48 h"}, "Staphylococcus aureus": {"tested_on": "Staphylococcus aureus", "test": "Antibacterial activity against Staphylococcus aureus ATCC 25923 assessed as inhibition of bacterial growth incubated for 24 hrs by serial dilution based spectrophotometric analysis", "type": "functional, organism-based", "settings": "ATCC 25923, 24 h"}, "NCI-H460": {"tested_on": "NCI-H460", "test": "Cytotoxicity against human NCI-H460 cells assessed as inhibition of cell growth incubated for 24 hrs by MTT assay", "type": "functional, cell-based", "settings": "NCI-H460, 24 h"}, "SW-620": {"tested_on": "SW-620", "test": "Cytotoxicity against human SW620 cells assessed as inhibition of cell growth incubated for 24 hrs by MTT assay", "type": "functional, cell-based", "settings": "SW-620, 24 h"}, "Escherichia coli": {"tested_on": "Escherichia coli", "test": "Antibacterial activity against Escherichia coli ATCC 11775 assessed as inhibition of bacterial growth incubated for 24 hrs by serial dilution based spectrophotometric analysis", "type": "functional, organism-based", "settings": "ATCC 11775, 24 h"}}}
{"smiles": "CC(C)[C@@]1(O)CC[C@@]2(C)C[C@](O)([C@@H]3CC[C@@H]4[C@]3(C)CC[C@H]3OC(C)(C)[C@H](O)C(=O)[C@@H](O)[C@]43C)CC[C@H]21", "values": [{"measurement": "IC50", "setting": "[1]", "value": 12.8, "unit": "µM"}]}
{"smiles": "COC[C@H]1O[C@H](O[C@@]2(C)CC[C@@H](C(C)(C)O)O[C@@H]2CC[C@H](C)[C@@]2(C)CCC3=C2CC[C@@H]2OC(C)(C)[C@H](O[C@H]4O[C@H](COC)[C@@H](O)[C@H](O)[C@H]4NC(C)=O)[C@@H](O)C[C@@]32C)[C@H](NC(C)=O)[C@@H](O)[C@@H]1O", "values": [{"measurement": "IC50", "setting": "Candida albicans", "value": "> 30", "unit": "µM"}, {"measurement": "IC50", "setting": "Staphylococcus aureus", "value": "> 30", "unit": "µM"}, {"measurement": "IC50", "setting": "NCI-H460", "value": "> 30", "unit": "µM"}, {"measurement": "IC50", "setting": "SW-620", "value": "> 30", "unit": "µM"}, {"measurement": "IC50", "setting": "Escherichia coli", "value": "> 30", "unit": "µM"}]}
{"smiles": "COC[C@H]1O[C@H](O[C@@]2(C)CC[C@@H](C(C)(C)O)O[C@@H]2CC[C@H](C)[C@@]2(C)CC=C3[C@@H]2CC[C@@H]2OC(C)(C)[C@H](O[C@H]4O[C@H](COC)[C@@H](O)[C@H](O)[C@H]4NC(C)=O)[C@@H](O)C[C@@]32C)[C@H](NC(C)=O)[C@@H](O)[C@@H]1O", "values": [{"measurement": "IC50", "setting": "Candida albicans", "value": "> 30", "unit": "µM"}, {"measurement": "IC50", "setting": "Staphylococcus aureus", "value": "> 30", "unit": "µM"}, {"measurement": "IC50", "setting": "NCI-H460", "value": "> 30", "unit": "µM"}, {"measurement": "IC50", "setting": "SW-620", "value": "> 30", "unit": "µM"}, {"measurement": "IC50", "setting": "Escherichia coli", "value": "> 30", "unit": "µM"}]}
{"smiles": "CC(C)[C@@]1(O)CC[C@@]2(C)C[C@](O)([C@@H]3CC[C@@H]4[C@]3(C)CC[C@H]3OC(C)(C)[C@H](O)C(=O)[C@H](O)[C@]43C)CC[C@H]21", "values": [{"measurement": "IC50", "setting": "[1]", "value": 32.8, "unit": "µM"}]}
{"smiles": "COC[C@H]1O[C@H](O[C@@H]2CC[C@@]3(C)C4=CC[C@](C)([C@@H](C)CC[C@H]5O[C@H](C(C)(C)O)CC[C@]5(C)O)[C@H]4CC[C@@H]3OC2(C)C)[C@H](NC(C)=O)[C@@H](O)[C@@H]1O", "values": [{"measurement": "IC50", "setting": "Candida albicans", "value": "> 30", "unit": "µM"}, {"measurement": "IC50", "setting": "Staphylococcus aureus", "value": "> 30", "unit": "µM"}, {"measurement": "IC50", "setting": "NCI-H460", "value": "> 30", "unit": "µM"}, {"measurement": "IC50", "setting": "SW-620", "value": "> 30", "unit": "µM"}, {"measurement": "IC50", "setting": "Escherichia coli", "value": "> 30", "unit": "µM"}]}
{"smiles": "COC[C@H]1O[C@H](O[C@@H]2CC[C@@]3(C)C4=CC[C@](C)([C@@H](C)CC[C@H]5O[C@H](C(C)(C)O)CC[C@]5(C)O[C@H]5O[C@H](COC)[C@@H](O)[C@H](O)[C@H]5NC(C)=O)[C@H]4CC[C@@H]3OC2(C)C)[C@H](NC(C)=O)[C@@H](O)[C@@H]1O", "values": [{"measurement": "IC50", "setting": "Candida albicans", "value": "> 30", "unit": "µM"}, {"measurement": "IC50", "setting": "Staphylococcus aureus", "value": "> 30", "unit": "µM"}, {"measurement": "IC50", "setting": "NCI-H460", "value": "> 30", "unit": "µM"}, {"measurement": "IC50", "setting": "SW-620", "value": "> 30", "unit": "µM"}, {"measurement": "IC50", "setting": "Escherichia coli", "value": "> 30", "unit": "µM"}]}
{"smiles": "COC[C@H]1O[C@H](O[C@@H]2[C@@H](O)C[C@@]3(C)C4=CC[C@](C)([C@@H](C)CC[C@H]5O[C@H](C(C)(C)O)CC[C@]5(C)O)[C@H]4CC[C@@H]3OC2(C)C)[C@H](NC(C)=O)[C@@H](O)[C@@H]1O", "values": [{"measurement": "IC50", "setting": "Candida albicans", "value": "> 30", "unit": "µM"}, {"measurement": "IC50", "setting": "Staphylococcus aureus", "value": "> 30", "unit": "µM"}, {"measurement": "IC50", "setting": "NCI-H460", "value": "> 30", "unit": "µM"}, {"measurement": "IC50", "setting": "SW-620", "value": "> 30", "unit": "µM"}, {"measurement": "IC50", "setting": "Escherichia coli", "value": "> 30", "unit": "µM"}]}
{"smiles": "CC(=O)N[C@H]1[C@@H](O[C@@H]2CC[C@@]3(C)C4=CC[C@](C)([C@@H](C)CC[C@H]5O[C@H](C(C)(C)O)CC[C@]5(C)O)[C@H]4CC[C@@H]3OC2(C)C)O[C@H](CO)[C@@H](O)[C@@H]1O", "values": [{"measurement": "IC50", "setting": "Candida albicans", "value": "> 30", "unit": "µM"}, {"measurement": "IC50", "setting": "Staphylococcus aureus", "value": "> 30", "unit": "µM"}, {"measurement": "IC50", "setting": "NCI-H460", "value": "> 30", "unit": "µM"}, {"measurement": "IC50", "setting": "SW-620", "value": "> 30", "unit": "µM"}, {"measurement": "IC50", "setting": "Escherichia coli", "value": "> 30", "unit": "µM"}]}
{"smiles": "COC[C@H]1O[C@H](O[C@@H]2CC[C@@]3(C)C4=C(CC[C@@H]3OC2(C)C)[C@@](C)([C@@H](C)CC[C@H]2O[C@H](C(C)(C)O)CC[C@]2(C)O[C@H]2O[C@H](COC)[C@@H](O)[C@H](O)[C@H]2NC(C)=O)CC4)[C@H](NC(C)=O)[C@@H](O)[C@@H]1O", "values": [{"measurement": "IC50", "setting": "Candida albicans", "value": "> 30", "unit": "µM"}, {"measurement": "IC50", "setting": "Staphylococcus aureus", "value": "> 30", "unit": "µM"}, {"measurement": "IC50", "setting": "NCI-H460", "value": "> 30", "unit": "µM"}, {"measurement": "IC50", "setting": "SW-620", "value": "> 30", "unit": "µM"}, {"measurement": "IC50", "setting": "Escherichia coli", "value": "> 30", "unit": "µM"}]}
{"smiles": "COC[C@H]1O[C@H](O[C@@]2(C)CC[C@@H](C(C)(C)O)O[C@@H]2CC[C@H](C)[C@@]2(C)CC=C3[C@@H]2CC[C@@H]2OC(C)(C)[C@H](O[C@H]4O[C@H](CO)[C@@H](O)[C@H](O)[C@H]4NC(C)=O)CC[C@@]32C)[C@H](NC(C)=O)[C@@H](O)[C@@H]1O", "values": [{"measurement": "IC50", "setting": "Candida albicans", "value": "> 30", "unit": "µM"}, {"measurement": "IC50", "setting": "Staphylococcus aureus", "value": "> 30", "unit": "µM"}, {"measurement": "IC50", "setting": "NCI-H460", "value": "> 30", "unit": "µM"}, {"measurement": "IC50", "setting": "SW-620", "value": "> 30", "unit": "µM"}, {"measurement": "IC50", "setting": "Escherichia coli", "value": "> 30", "unit": "µM"}]}
